The source of these data is US11952330B2, “Antibiotic ammonium compounds and methods for the treatment of bacterial infections” (priority 2019, dated 2024).

One experiment relates to S. aureus. The experiment is described as follows: MIC by broth dilution, S. aureus. The class given is cell-based. Conditions: Staphylococcus aureus; Mueller-Hinton broth, overnight 37° C.; Table 1; read-out: MIC (μg/mL) S. aureus. The protocol: (§1) The antibacterial efficacy of the ammonium compounds was assessed. Minimum inhibitory concentrations (MICs) were determined by broth dilution method. Dilutions of each compound, ranging from 1 μg/mL to 256 μg/mL (final concentrations) were prepared in Mueller-Hinton broth. Compound dilutions were added to wells of a 96-well plate, with the concentration of the compound increasing 2-fold by row. Each well contained 5×10^5 CFU/ml of target bacterium in a total volume of 100 μl. Plates were incubated overnight at 37° C. The following day, plates were evaluated for a visual change in growth to determine the MIC. The concentration value corresponding to the first row that no longer had visible bacterial growth, as evaluated by turbidity in the wells, was recorded as the MIC. MIC values were representative of at least biological duplicates, each made up of technical triplicates. The antibacterial efficacy of ammonium compounds in the presence of human plasma was assessed. Minimum inhibitory concentrations (MICs) were determined by broth dilution method. Dilutions of each compound, ranging from 1 μg/mL to 256 μg/mL (final concentrations) were prepared in Mueller-Hinton broth. For the plasma containing samples, compound dilutions were made in Mueller-Hinton broth and supplemented with 5% (final %) human plasma (esterases). Compound dilutions were added to wells of a 96-well plate, with the concentration of the compound increasing 2-fold by row. Each well contained 5×10^5 CFU/mL of target bacterium in a total volume of 100 μL. Plates were incubated overnight at 37° C. The following day, plates were evaluated for a visual change in growth to determine the MIC. The concentration value corresponding to the first row that no longer had visible bacterial growth, as evaluated by turbidity in the wells, was recorded as the MIC. MIC values were representative of at least biological duplicates, each made up of technical triplicates.

Another experiment has as its system A. baumannii. The experiment is described as follows: MIC by broth dilution, A. baumannii. Format: cell-based. To be noted: Acinetobacter baumannii; Mueller-Hinton broth, overnight 37° C.; Table 1; read-out: MIC (μg/mL) A. baumannii. The protocol:
as §1

Regarding `CCCCCCCCOc1ccccc1C(=O)Nc1ccc(C(=O)OCC[N+](CC)(CC)Cc2ccc([N+](=O)[O-])cc2)cc1.[Br-]` [Compound 39, N,N-Diethyl-N-(4-nitrobenzyl)-2-((4-(2-(octyloxy)benzamido)benzoyl)oxy)ethan-1-aminium bromide], the MIC was 3 to 30 µg/mL in the experiment with S. aureus and more than 30 µg/mL with A. baumannii.
The corresponding values for `CCCCCCCCOc1ccccc1C(=O)Nc1ccc(C(=O)OCC[N+](CC)(CC)Cc2cccc(C(F)(F)F)c2)cc1.[Br-]` [Compound 40, N,N-Diethyl-2-((4-(2-(octyloxy)benzamido)benzoyl)oxy)-N-(3-(trifluoromethyl)-benzyl)ethan-1-aminium bromide] are less than 3 µg/mL and more than 30 µg/mL.
Regarding `CCCCCCCCOc1ccccc1C(=O)Nc1ccc(C(=O)OCC[N+](CC)(CC)Cc2ccc(C(F)(F)F)cc2)cc1.[Br-]` [Compound 41, N,N-Diethyl-2-((4-(2-(octyloxy)benzamido)benzoyl)oxy)-N-(4-(trifluoromethyl)-benzyl)ethan-1-aminium bromide], the MIC was less than 3 µg/mL in the experiment with S. aureus and more than 30 µg/mL in the experiment on A. baumannii.
The matching figures for `CCCCCCCCOc1ccccc1C(=O)Nc1ccc(C(=O)OCC[N+](CC)(CC)Cc2cccc(F)c2)cc1.[Br-]` [Compound 42, N,N-Diethyl-N-(3-fluorobenzyl)-2-((4-(2-(octyloxy)benzamido)benzoyl)oxy)ethan-1-aminium bromide]: less than 3 µg/mL and 3 to 30 µg/mL.
Turning to `CCCCCCCCOc1ccccc1C(=O)Nc1ccc(C(=O)OCC[N+](CC)(CC)Cc2cccc(F)c2F)cc1.[Br-]` [Compound 43, N,N-Diethyl-N-(2,3-difluorobenzyl)-2-((4-(2-(octyloxy)benzamido)benzoyl)oxy)-ethan-1-aminium bromide], the MIC with S. aureus is less than 3 µg/mL; with A. baumannii, 3 to 30 µg/mL.
With `CCCCCCCCOc1ccccc1C(=O)Nc1ccc(C(=O)OCC[N+](CC)(CC)CCCCc2ccccc2)cc1.[Br-]` [Compound 44, N,N-Diethyl-N-(2-((4-(2-(octyloxy)benzamido)benzoyl)oxy)ethyl)-4-phenylbutan-1-aminium bromide], the MIC is less than 3 µg/mL in the experiment on S. aureus and 3 to 30 µg/mL in the experiment on A. baumannii.
As to `CCCCCCCCOc1ccccc1C(=O)Nc1ccc(C(=O)OCCC[N+](C)(CC)CC)cc1.[I-]` [Compound 45, N,N-Diethyl-N-methyl-3-((4-(2-(octyloxy)benzamido)benzoyl)oxy)propan-1-aminium iodide], the MIC with S. aureus and with A. baumannii was 3 to 30 µg/mL throughout.
Turning to `CCCCCCCCOc1ccccc1C(=O)Nc1ccc(C(=O)OCCCC[N+](C)(C)C)cc1.[I-]` [Compound 46, N,N,N-Trimethyl-4-((4-(2-(octyloxy)benzamido)benzoyl)oxy)butan-1-aminium iodide], the MIC in the experiment with S. aureus was 3 to 30 µg/mL; with A. baumannii, more than 30 µg/mL.
Turning to `CCCCCCCCOc1ccccc1C(=O)Nc1ccc(C(=O)OCC[N+](CC)(CC)CCC(C)(C)C)cc1.[Br-]` [Compound 47, N,N-Diethyl-3,3-dimethyl-N-(2-((4-(2-(octyloxy)benzamido)benzoyl)oxy)ethyl)-butan-1-aminium bromide], the results for the MIC with S. aureus and in the experiment on A. baumannii were less than 3 µg/mL and 3 to 30 µg/mL, respectively.
The matching figures for `CCCCCCCCCC[N+](CC)(CC)CCOC(=O)c1ccc(NC(=O)c2ccccc2OCCCCCCCC)cc1.[Br-]` [Compound 48, N,N-Diethyl-N-(2-((4-(2-(octyloxy)benzamido)benzoyl)oxy)ethyl)decan-1-aminium bromide]: less than 3 µg/mL and more than 30 µg/mL.
In the case of `CCCCCCCCCCC[N+](CC)(CC)CCOC(=O)c1ccc(NC(=O)c2ccccc2OCCCCCCCC)cc1.[Br-]` [Compound 49, N,N-Diethyl-N-(2-((4-(2-(octyloxy)benzamido)benzoyl)oxy)ethyl)undecan-1-aminium bromide], the MIC with S. aureus is less than 3 µg/mL; with A. baumannii, more than 30 µg/mL.
With `CCCCCCCCOc1ccccc1C(=O)Nc1ccc(C(=O)OCC[N+](CC)(CC)Cc2cccc(OC)c2)cc1.[Br-]` [Compound 50, N,N-Diethyl-N-(3-methoxybenzyl)-2-((4-(2-(octyloxy)benzamido)benzoyl)oxy)-ethan-1-aminium bromide], the MIC in the experiment with S. aureus is less than 3 µg/mL; with A. baumannii, 3 to 30 µg/mL.
Turning to `CCCCCCCCOc1ccccc1C(=O)Nc1ccc(C(=O)OCC[N+](CC)(CC)Cc2ccc(C(=O)OC)cc2)cc1.[Br-]` [Compound 51, N,N-Diethyl-N-(4-(methoxycarbonyl)benzyl)-2-((4-(2-(octyloxy)benzamido)-benzoyl)oxy)ethan-1-aminium bromide], the MIC is less than 3 µg/mL in the experiment with S. aureus and more than 30 µg/mL in the experiment on A. baumannii.
With `CCCCCCCCOc1ccccc1C(=O)Nc1ccc(C(=O)OCC[N+]2(C)CCCC2)cc1.[Br-]` [Compound 52, 1-Methyl-1-(2-((4-(2-(octyloxy)benzamido)benzoyl)oxy)ethyl)pyrrolidin-1-ium bromide], the MIC in the experiment with S. aureus is 3 to 30 µg/mL; with A. baumannii, more than 30 µg/mL.
In the case of `CCCCCCCCOc1ccccc1C(=O)Nc1ccc(C(=O)OC2CC[N+](C)(CC)CC2)cc1.[Br-]` (stereo not shown) [Compound 53, 1-Ethyl-1-methyl-4-((4-(2-(octyloxy)benzamido)benzoyl)oxy)piperidin-1-ium bromide], the results for the MIC in the experiment with S. aureus and in the experiment on A. baumannii were 3 to 30 µg/mL and more than 30 µg/mL, respectively.
As for `CCCCCCCCOc1ccccc1C(=O)Nc1ccc(C(=O)N2CC[N+](C)(CC)CC2)cc1.[Br-]` [Compound 54, 1-Ethyl-1-methyl-4-(4-(2-(octyloxy)benzamido)benzoyl)piperazin-1-ium bromide], the MIC with S. aureus and with A. baumannii was more than 30 µg/mL each time.
Turning to `CCCCCCCCOc1ccccc1C(=O)Nc1ccc(C(=O)N(C)CC[N+](C)(CC)CC)cc1.[Br-]` [Compound 55, N,N-Diethyl-N-methyl-2-(N-methyl-4-(2-(octyloxy)benzamido)benzamido)ethan-1-aminium bromide], the MIC in the experiment on S. aureus and in the experiment with A. baumannii was more than 30 µg/mL in each case.
As for `CCCCCCCCOc1ccccc1C(=O)Nc1ccc(C(=O)OCC[N+]2(CCC)CCCC2)cc1.[Br-]` [Compound 56, 1-(2-((4-(2-(Octyloxy)benzamido)benzoyl)oxy)ethyl)-1-propylpyrrolidin-1-ium bromide], the MIC was less than 3 µg/mL in the experiment with S. aureus and 3 to 30 µg/mL in the experiment with A. baumannii.
On to `CCCCCCCCOc1ccccc1C(=O)Nc1ccc(C(=O)OC2CC[N+](CC)(CCC)CC2)cc1.[Br-]` (stereo not shown) [Compound 57, 1-Ethyl-4-((4-(2-(octyloxy)benzamido)benzoyl)oxy)-1-propylpiperidin-1-ium bromide], for which the MIC in the experiment on S. aureus and with A. baumannii was 3 to 30 µg/mL in each case.
`CCCCCCCCOc1ccccc1C(=O)Nc1ccc(C(=O)N(C)CC[N+](CC)(CC)CCC)cc1.[Br-]` [Compound 59, N,N-Diethyl-N-(2-(N-methyl-4-(2-(octyloxy)benzamido)benzamido)ethyl)propan-1-aminium bromide]: the values for the MIC in the experiment with S. aureus and in the experiment with A. baumannii were 3 to 30 µg/mL and more than 30 µg/mL, respectively.
Regarding `CCCCCCCCOc1ccccc1C(=O)Nc1ccc(C(=O)OCC[N+](CC)(CC)CC2CC2)cc1.[Br-]` [Compound 60, N-(Cyclopropylmethyl)-N,N-diethyl-2-((4-(2-(octyloxy)benzamido)benzoyl)oxy)-ethan-1-aminium bromide], the MIC with S. aureus and in the experiment on A. baumannii was 3 to 30 µg/mL in each case.
`CCCCCCCCOc1ccccc1C(=O)Nc1ccc(C(=O)OCC[N+](CC)(CC)CC2CCCC2)cc1.[Br-]` [Compound 61, N-(Cyclopentylmethyl)-N,N-diethyl-2-((4-(2-(octyloxy)benzamido)benzoyl)oxy)-ethan-1-aminium bromide]: the values for the MIC in the experiment on S. aureus and in the experiment with A. baumannii were less than 3 µg/mL and 3 to 30 µg/mL, respectively.
Turning to `CCCCCCCCOc1ccccc1C(=O)Nc1ccc(C(=O)OCC[N+](CC)(CC)CC2CCCCC2)cc1.[Br-]` [Compound 62, N-(Cyclohexylmethyl)-N,N-diethyl-2-((4-(2-(octyloxy)benzamido)benzoyl)oxy)-ethan-1-aminium bromide], the MIC is less than 3 µg/mL in the experiment with S. aureus and 3 to 30 µg/mL with A. baumannii.
Regarding `CCCCCCCCOc1ccccc1C(=O)Nc1ccc(C(=O)OCC[N+](CC)(CC)CCC(C)C)cc1.[Br-]` [Compound 63, N,N-Diethyl-3-methyl-N-(2-((4-(2-(octyloxy)benzamido)benzoyl)oxy)ethyl)butan-1-aminium bromide], the MIC with S. aureus is less than 3 µg/mL; in the experiment on A. baumannii, 3 to 30 µg/mL.
For `CCCCCOc1ccccc1C(=O)Nc1ccc(C(=O)OCC[N+](CC)(CC)CCC)cc1.[Br-]` [Compound 64, N,N-Diethyl-N-(2-((4-(2-(pentyloxy)benzamido)benzoyl)oxy)ethyl)propan-1-aminium bromide], the MIC with S. aureus is 3 to 30 µg/mL; with A. baumannii, more than 30 µg/mL.
The corresponding values for `CCCCCOc1ccccc1C(=O)Nc1ccc(C(=O)OCC[N+](CC)(CC)CCCCC)cc1.[Br-]` [Compound 65, N,N-Diethyl-N-(2-((4-(2-(pentyloxy)benzamido)benzoyl)oxy)ethyl)pentan-1-aminium bromide] are 3 to 30 µg/mL and more than 30 µg/mL.
